Patent publication US10723711B2, “1,1,1-trifluoro-3-hydroxypropan-2-yl carbamate derivatives and 1,1,1-trifluoro-4-hydroxybutan-2-yl carbamate derivatives as MAGL inhibitors” (PFIZER INC., priority 2015, dated 2020)
Where two headings read alike, the source gives them in different places.

How the values were obtained:
Assay type in all cases: biochemical
[1] = target: T1, human recombinant Monoacylglycerol Lipase (Homo sapiens, UniProt Q99685); assay: MAGL inhibition enzymatic assay, fluorogenic substrate 7-HCA, IC50 at T=0 min or after 30 minute incubation (T=30 min); conditions: geometric mean of 2-4 determinations unless otherwise indicated
T1 sequence (Q99685 1-303): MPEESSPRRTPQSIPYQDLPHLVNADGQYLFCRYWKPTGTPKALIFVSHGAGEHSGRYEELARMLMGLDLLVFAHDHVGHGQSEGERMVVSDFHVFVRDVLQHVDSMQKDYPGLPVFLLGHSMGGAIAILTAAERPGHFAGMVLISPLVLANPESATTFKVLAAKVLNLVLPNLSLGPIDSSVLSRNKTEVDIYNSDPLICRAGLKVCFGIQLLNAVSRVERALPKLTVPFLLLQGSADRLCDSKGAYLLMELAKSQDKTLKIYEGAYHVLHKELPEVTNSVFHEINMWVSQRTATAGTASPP
Method: An equal volume of 7-HCA in assay buffer with 10% DMSO was added either immediately (T=0 min) or after a 30 minute incubation (T=30 min) to initiate the reaction. […] After these dilutions, the final concentration of the test compound ranged from 3 μM to 0.03 nM. […] IC50 values were generated based on a four parameter fit model using ABASE software from IDBS.

[2] = target: T2, human recombinant FAAH (Homo sapiens, UniProt O00519); assay: FAAH inhibition enzymatic assay, fluorescent substrate Arachidonoyl-AMC, 30 minute incubation; conditions: T = 30 min (30 minute incubation); geometric mean of 2-4 determinations unless otherwise indicated
T2 construct: purchased Cayman 10010183
T2 sequence (O00519 1-579): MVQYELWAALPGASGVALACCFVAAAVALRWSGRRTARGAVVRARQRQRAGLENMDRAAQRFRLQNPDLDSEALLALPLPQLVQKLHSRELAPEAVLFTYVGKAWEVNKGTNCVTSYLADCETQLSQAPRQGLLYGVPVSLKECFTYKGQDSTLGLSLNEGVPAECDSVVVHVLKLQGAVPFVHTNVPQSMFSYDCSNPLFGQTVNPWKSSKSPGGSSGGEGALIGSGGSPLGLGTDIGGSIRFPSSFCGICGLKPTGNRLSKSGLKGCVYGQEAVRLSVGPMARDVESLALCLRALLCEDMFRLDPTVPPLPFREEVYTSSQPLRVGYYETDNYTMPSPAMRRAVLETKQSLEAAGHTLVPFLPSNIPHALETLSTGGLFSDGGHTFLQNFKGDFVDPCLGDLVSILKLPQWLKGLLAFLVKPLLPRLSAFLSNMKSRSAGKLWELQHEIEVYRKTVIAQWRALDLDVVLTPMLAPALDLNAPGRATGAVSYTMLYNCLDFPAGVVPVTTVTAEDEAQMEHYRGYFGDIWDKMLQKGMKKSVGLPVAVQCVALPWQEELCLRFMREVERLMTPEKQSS
Method: Assessment of FAAH inhibition utilizes human recombinant FAAH and the fluorescent substrate, Arachidonoyl-AMC. 400 nL of a test compound at decreasing concentrations was spotted into a 384-well back plate (PerkinElmer, 6007279) using a Labcyte Echo, followed by addition of 10 μl of FAAH enzyme (Cayman 10010183) in assay buffer (50 mM Tris, pH 9.0, 1 mM EDTA). After a 30 minute incubation at room temperature, 10 μL of Arachidonyl-AMCA was added in assay buffer with 16% DMSO. Final concentration of FAAH enzyme was 0.0125 Units and AAMCA substrate was used at the Km of 5 μM. […] The reaction was allowed to progress for 60 minutes, after which the plate was read on a Molecular Devices FlexStation reader at an Ex/Em of 355/460. Percent inhibitions were calculated based on controls wells containing either no compound (0% inhibition) or a control compound (e.g., an FAAH inhibitor whose activity is known or was previously reported in the literature, such as one with about 100% inhibition). IC50 values were generated based on a four parameter fit model using ABASE software from IDBS.

[3] = target: T1, human recombinant Monoacylglycerol Lipase; assay: MAGL inactivation, enzyme progress curves, kinact/KI; conditions: from enzyme progress curves, T = 0 min protocol; geometric mean of 2-4 determinations unless otherwise indicated
Method: Assessment of MAGL inhibition utilizes human recombinant Monoacylglycerol Lipase and the fluorogenic substrate 7-hydroxycoumarinyl arachidonate (7-HCA, Biomol ST-502). 400 nL of a test compound at decreasing concentration (ranging from 150 μM down to 1.5 nM) was spotted into a 384-well back plate (PerkinElmer, 6007279) using a Labcyte Echo, followed by addition of 10 μL of MAGL enzyme in assay buffer (50 mM HEPES, pH 7.4, 100 mM NaCl, 5 mM MgCl2, 0.1% Triton X-100 and 25% glycerin). An equal volume of 7-HCA in assay buffer with 10% DMSO was added either immediately (T=0 min) or after a 30 minute incubation (T=30 min) to initiate the reaction. The final concentration of MAGL enzyme was […] and 7-HCA substrate was 5 μM. After these dilutions, the final concentration of the test compound ranged from 3 μM to 0.03 nM. The reaction was allowed to progress for 60 minutes, after which the plate was read at an Ex/Em of 340/465. Percent inhibitions were calculated based on control wells containing no compound (0% inhibition) and a control compound (e.g., a MAGL inhibitor whose activity is known or was previously reported in the literature, such as one with about 100% inhibition). IC50 values were generated based on a four parameter fit model using ABASE software from IDBS. See e.g., Wang, Y. et al., “A Fluorescence-Based Assay for Monoacylglycerol Lipase Compatible with Inhibitor Screening,” Assay and Drug Development Technologies, 2008, Vol. 6 (3) pp 387-393 (reporting an assay for measuring MAGL activity).
To measure MAGL inactivation, the same protocol for the (T=0 min) MAGL inhibition IC50 assay was performed with data collected every minute to acquire enzyme progress curves at decreasing concentrations of compound.

[4] = T = 0 min (substrate added immediately), read-out: MAGL (T = 0 min) IC50
[5] = T = 30 min (30 minute incubation), read-out: MAGL (T = 30 min) IC50

Row | IC50 [1, 4] [nM] | IC50 [1, 5] [nM] | IC50 [2] [µM] | MAGL kinact/KI [3] | SMILES
1 | 76 | 6 | 25.7 | 12483 1/s per M | O=C(O[C@H](CO)C(F)(F)F)N1CCC2(CC1)CC(Oc1ccccn1)CO2 (single isomer, unassigned) [Example 130]
2 | 56 | 5 | > 30 | 7262 1/s per M | O=C(O[C@H](CO)C(F)(F)F)N1CCC2(CC1)CN(S(=O)(=O)c1ccc(F)c(F)c1)CCO2 [Example 52]
3 | 92 | 10 | > 30 | 6720 1/s per M | O=C(O[C@H](CO)C(F)(F)F)N1CCC2(CC1)CCN(C(=O)C1CCCC1)C2 [Example 124]
4 | 318 | 29 | > 30 | 3282 1/s per M | CN([C@H]1COC2(CCN(C(=O)O[C@H](CO)C(F)(F)F)CC2)C1)S(=O)(=O)C1CC1 [Example 93, (2R)-1,1,1-Trifluoro-3-hydroxypropan-2-yl (3R)-3-[(cyclopropylsulfonyl)(methyl)amino]-1-oxa-8-azaspiro[4.5]decane-8-carboxylate]
5 | 16 | 1 | 8.72 | 131495 1/s per M | O=C(O[C@H](CO)C(F)(F)F)N1CCC2(CC1)CC(c1ccccc1)CO2 (single isomer, unassigned) [Example 95]
6 | 139 | 10 | > 25.5 | 6254 1/s per M | CN(C1COC2(CCN(C(=O)O[C@H](CO)C(F)(F)F)CC2)C1)S(=O)(=O)C1CCC1 (mixture of isomers) [Example 113]
7 | 180 | 21 | 6.54 | 2454 1/s per M | O=C(O[C@H](CO)C(F)(F)F)N1CCC2(CC1)CC(N1Cc3ccccc3S1(=O)=O)CO2 (mixture of isomers) [Example 101, (2R)-1,1,1-trifluoro-3-hydroxypropan-2-yl 3-(1,1-dioxido-1,2-benzothiazol-2(3H)-yl)-1-oxa-8-azaspiro[4.5]decane-8-carboxylate]
8 | 77 | 7 | > 30 | 3519 1/s per M | CN(C(=O)c1cccc(F)c1)[C@H]1COC2(CCN(C(=O)O[C@H](CO)C(F)(F)F)CC2)C1 [Example 141]
9 | 112 | 12 | > 30 | 3723 1/s per M | O=C(O[C@H](CO)C(F)(F)F)N1CCC2(CC1)CCN(C(=O)c1ccccc1)C2 [Example 126]
10 | 96 | 7 | > 23.4 | 9930 1/s per M | O=C(O[C@H](CO)C(F)(F)F)N1CCC2(CC1)CCN(S(=O)(=O)c1nccs1)C2 [Example 134]
11 | 10 | 1 | > 30 | 127771 1/s per M | CC(C)N([C@H]1COC2(CCN(C(=O)O[C@H](CO)C(F)(F)F)CC2)C1)S(=O)(=O)c1ccccc1 [Example 107]
12 | 8 | 1 | 7.54 | 45138 1/s per M | C#Cc1ccc(-n2ccc([C@H]3[C@@H]4CN(C(=O)O[C@H](CO)C(F)(F)F)C[C@@H]43)n2)cc1 [Example 81]
13 | 179 | 17 | > 30 | 3701 1/s per M | CC(c1ccc(F)cc1)N1CCOC2(CCN(C(=O)O[C@H](CO)C(F)(F)F)CC2)C1 (single isomer, unassigned) [Example 44]
14 | 341 | 27 | > 30 | 2917 1/s per M | CN(C1COC2(CCN(C(=O)O[C@H](CO)C(F)(F)F)CC2)C1)S(=O)(=O)c1cncnc1 (mixture of isomers) [Example 115]
15 | 149 | 20 | 14.7 | 1207 1/s per M | COc1ccc(C2COC3(CCN(C(=O)O[C@H](CO)C(F)(F)F)CC3)C2)nc1 (mixture of isomers) [Example 121]
16 | 29 | 3 | > 24.1 | 29124 1/s per M | O=C(O[C@H](CO)C(F)(F)F)N1CCC2(CC1)CN(S(=O)(=O)c1ccccc1)CCO2 [Example 7, (2R)-1,1,1-Trifluoro-3-hydroxypropan-2-yl 4-(phenylsulfonyl)-1-oxa-4,9-diazaspiro[5.5]undecane-9-carboxylate]
17 | 94 | 9 | > 30 | 4595 1/s per M | CN([C@H]1COC2(CCN(C(=O)O[C@H](CO)C(F)(F)F)CC2)C1)S(=O)(=O)CC1CCC1 [Example 140]
18 | 71 | 7 | > 30 | 4933 1/s per M | O=C(O[C@H](CO)C(F)(F)F)N1CCC2(CC1)CCN(C(=O)c1ccccc1F)C2 [Example 98, (2R)-1,1,1-Trifluoro-3-hydroxypropan-2-yl 2-(2-fluorobenzoyl)-2,8-diazaspiro[4.5]decane-8-carboxylate]
19 | 6 | 1 | 2.58 | 16865 1/s per M | CC(C)Oc1ccc(S(=O)(=O)N2CCOC3(CCN(C(=O)O[C@H](CO)C(F)(F)F)CC3)C2)cc1 [Example 78]
20 | 174 | 17 | > 30 | 5046 1/s per M | O=C(O[C@H](CO)C(F)(F)F)N1CCC(CNS(=O)(=O)c2ccc(F)cc2)CC1 [Example 47]
21 | 7 | 1 | 7.92 | 126124 1/s per M | C#Cc1ccc(-n2ccc(C3CCN(C(=O)O[C@H](CO)C(F)(F)F)CC3)n2)cc1 [Example 80]
22 | 67 | 7 | > 30 | 216 1/s per M | CN(CC1CCN(C(=O)O[C@H](CO)C(F)(F)F)CC1)S(=O)(=O)c1ccc(F)cc1 [Example 62]
23 | 52 | 5 | > 30 | 15516 1/s per M | CN([C@H]1COC2(CCN(C(=O)O[C@H](CO)C(F)(F)F)CC2)C1)S(=O)(=O)c1nccs1 [Example 136]
